What all share (format): cell-based
One assay has as its system A. fumigatus GC 3092. Kind of assay: Antifungal activity, microtiter broth dilution MIC. The conditions noted are these: Aspergillus fumigatus, GC3092, read-out: ANTIFUNGAL ACTIVITY (MIC). The protocol:
(§1) The antifungal activity for the 1-oxorapamycins of this invention was confirmed in a standard pharmacological test procedure which measured the ability of the compound being evaluated to inhibit fungal growth. 1-Oxorapamycin (Compound I), 1-oxorapamycin 42-ester with 3-hydroxy-2-(hydroxymethyl)-2-methylpropionic acid (Compound II), and 42-O-(2-hydroxy)ethyl 1-oxorapamycin (Compound III) were evaluated as representative compounds of this invention. The procedure used and results obtained are briefly described below. A 96 U-bottom microtiter plate was filled (50 μl/well) with RPMI 1640. The compounds to be evaluated were placed in appropriate wells, and serial diluted in successive wells to provide 11 dilutions. The concentrations ranged from 64 through 0.06 μg/ml. An adjusted inoculum of fungi (50 μl) was added to each well and the plates were incubated at 35° C. for 24-48 hours. […] Nystatin and rapamycin were used for the purpose of comparison.
A general note: Dilution methods test growth across graded concentrations, often in twofold steps.

The next assay concerns A. niger GC 3091. Briefly: Antifungal activity, microtiter broth dilution MIC. To be noted: Aspergillus niger, GC3091, RPMI 1640, 35° C., 24-48 hours. As for the experimental part:
as §1

The subject of the next assay is A. niger GC 6591. Briefly: Antifungal activity, microtiter broth dilution MIC. To be noted: Aspergillus niger, GC6591, RPMI 1640, 35° C., 24-48 hours. The protocol: as §1
The next assay relates to C. albicans GC 3064. Kind of assay: Antifungal activity, microtiter broth dilution MIC. To be noted: Candida albicans, GC3064, RPMI 1640, 35° C., 24-48 hours. The protocol: as §1
The subject of a further assay is C. albicans GC 3065. Kind of assay: Antifungal activity, microtiter broth dilution MIC. The conditions noted are these: Candida albicans, GC3065, RPMI 1640, 35° C., 24-48 hours. As for the experimental part:
as §1

The subject of a further assay is C. albicans GC 3066. Kind of assay: Antifungal activity, microtiter broth dilution MIC. The conditions noted are these: Candida albicans, GC3066, RPMI 1640, 35° C., 24-48 hours. The protocol:
as §1

Another assay deals with C. krussii GC 3067. Briefly: Antifungal activity, microtiter broth dilution MIC. The conditions noted are these: RPMI 1640, 35° C., 24-48 hours. As for the experimental part:
as §1

In another assay the test system is C. lusitaniae GC 3068. Briefly: Antifungal activity, microtiter broth dilution MIC. To be noted: Clavispora lusitaniae, RPMI 1640, 35° C., 24-48 hours. As for the experimental part:
as §1

The next assay concerns C. parapsilosis GC 3074. Briefly: Antifungal activity, microtiter broth dilution MIC. To be noted: Lodderomyces parapsilosis, GC3074, RPMI 1640, 35° C., 24-48 hours. As for the experimental part:
as §1

A further assay concerns C. parapsilosis GC 3075. Kind of assay: Antifungal activity, microtiter broth dilution MIC. To be noted: Lodderomyces parapsilosis, GC3075, RPMI 1640, 35° C., 24-48 hours. The protocol: as §1
Another assay deals with C. parapsilosis GC 3076. Kind of assay: Antifungal activity, microtiter broth dilution MIC. The conditions noted are these: Lodderomyces parapsilosis, GC3076, RPMI 1640, 35° C., 24-48 hours. The protocol: as §1
In a further assay the test system is C. pseudotropicalis 3070. Kind of assay: Antifungal activity, microtiter broth dilution MIC. The conditions noted are these: Kluyveromyces marxianus, RPMI 1640, 35° C., 24-48 hours. As for the experimental part:
as §1

In the next assay the test system is C. tropicalis GC 3080. Kind of assay: Antifungal activity, microtiter broth dilution MIC. The conditions noted are these: Candida tropicalis, GC3080, RPMI 1640, 35° C., 24-48 hours. The protocol:
as §1

The test system of a further assay is C. tropicalis GC 3081. Briefly: Antifungal activity, microtiter broth dilution MIC. The conditions noted are these: Candida tropicalis, GC3081, RPMI 1640, 35° C., 24-48 hours. As for the experimental part:
as §1

Assay [1] relates to 3T3 (ovarian) tumor cell line. Briefly: Antineoplastic activity, tumor cell growth inhibition (sulforhodamine B). To be noted: Mus musculus, NIH3T3, 3T3 cells, 48 hours. From the text: (§2) Antineoplastic activity for the compounds of this invention was confirmed by evaluating the antineoplastic activity of representative compounds of this invention (Compounds I-III) against six tumor cell lines in vitro. Briefly, tumor cells from six cell lines were placed in wells of a 96 well microtiter plate. The following tumor cell lines were used: 3T3 (ovarian), 3T3/H2N (ovarian—resistant to cis-platin), A431 (vulva epidermoid origin), SW620 (colon), SKBR3 (breast), and MDA-435 (breast). The tumors cells were grown in the presence of serial dilutions of the compound to be evaluated for 48 hours, and cell growth determined using a colorimetric procedure (sulforhrodamine B). The inhibition of growth was calculated compared to the number of cells at the time of test compound addition. Results are expressed as an IC50 (μg/ml); N/A indicates the compound was not evaluated against that cell line. The following IC50s was listed on Table 2.

For assay [2], the system named is 3T3/H2N (ovarian—resistant to cis-platin) tumor cell line. Described as above. The conditions noted are these: 3T3/H2N cells, 48 hours.
From the text: as §2

Assay [3] deals with A431 (vulva epidermoid origin) tumor cell line. Described as above. To be noted: Homo sapiens, A-431, A431 cells, 48 hours.
From the text: as §2

Assay [4] has as its system MDA-435 (breast) tumor cell line. The description is as above. The conditions noted are these: MDA435 cells, 48 hours.
From the text: as §2

Assay [5] deals with SKBR3 (breast) tumor cell line. The description is as above. To be noted: Homo sapiens, SK-BR-3, SKBR3 cells, 48 hours.
From the text: as §2

The test system of assay [6] is SW620 (colon) tumor cell line. The description is as above. To be noted: Homo sapiens, SW-620, SW620 cells, 48 hours.
From the text: as §2

A further assay concerns SH-SY5Y cells. Kind of assay: Neuroregeneration activity, neurite outgrowth. The conditions noted are these: aphidicolin pretreated, NGF plus test compound, mean ± SEM. The text has this:
The neuroregeneration activity for the compounds of this invention was confirmed in a standard pharmacological test procedure by evaluating 1-oxo-rapamycin (Compound I) as representative compound of this invention, against SH-SY5Y cells in vitro [Gold et al., Exp Neurol 147: 269-278, 1997]. Briefly, SH-SY5Y cells were placed in 6-well plate treated with aphidicolin for 5 days followed by the test compounds using 6-well plates. For controls, wells were untreated, or treated with nerve growth factor (NGF) alone. Test wells were treated with NGF plus compound I or rapamycin. Cells were photographed at 168 hours. Analysis of neuritic lengths was performed on photographic prints using a Houston Instrument HI-PAD digitizing tablet connected to an IBM XT computer with appropriate software (Bioquant IV, R&M Biometrics, Nashville, Tenn.). Mean values for axonal areas were compared using by ANOVA (STATVIEW, Abacus Concepts, Inc., Berkeley, Calif. The following table summarizes the results that were obtained.

≈ marks a conversion by molar mass, not a printed value. Like-named read-outs stand apart in the source and are kept apart here.

By MIC is commonly meant the least concentration at which growth counts as inhibited. By IC50 is commonly meant the midpoint of a concentration-inhibition curve. Read a low IC50 as higher potency. With `CO[C@H]1C[C@@H]2CC[C@@H](C)[C@@](O)(O2)C(=O)C(=O)N2CCCC[C@H]2C(=O)O[C@H]([C@H](C)C[C@@H]2CC[C@@H](O)[C@H](OC)C2)CC(=O)[C@H](C)/C=C(\C)[C@@H](O)[C@@H](OC)C(=O)[C@H](C)C[C@H](C)/C=C/C=C/C=C/1C` [Rapamycin], the MIC in the assay on A. fumigatus GC 3092 was over 128 µg/mL; against A. niger GC 3091 it was over 128 µg/mL; in the assay on A. niger GC 6591, over 128 µg/mL; against C. albicans GC 3064, under 0.12 µg/mL; against C. albicans GC 3065, 0.5 µg/mL (≈ 0.547 µM); against C. albicans GC 3066, under 0.12 µg/mL. For the same compound, the minimal inhibitory concentration (MIC) against C. krussii GC 3067 is 4 µg/mL (≈ 4.38 µM); in the assay with C. lusitaniae GC 3068 (GC3068, C. lusitaniae GC 3068, first listing (r26), read-out: ANTIFUNGAL ACTIVITY (MIC)), under 0.12 µg/mL; in the assay with C. lusitaniae GC 3068 (GC3068, read-out: ANTIFUNGAL ACTIVITY (MIC), C. lusitaniae GC 3068, second listing (r28)), 0.5 µg/mL (≈ 0.547 µM); in the assay on C. parapsilosis GC 3074 it was 0.25 µg/mL (≈ 0.273 µM); against C. parapsilosis GC 3075, under 0.12 µg/mL; against C. parapsilosis GC 3076 it was under 0.12 µg/mL. The minimum inhibitory concentration (MIC) was under 0.12 µg/mL against C. pseudotropicalis 3070, 0.25 µg/mL (≈ 0.273 µM) in the assay on C. tropicalis GC 3080 and 0.25 µg/mL (≈ 0.273 µM) with C. tropicalis GC 3081. Further, the concentration for half-maximal inhibition (IC50) turned out to be 0.48 µg/mL (≈ 0.525 µM) in assay [1]; 1.7 µg/mL (≈ 1.86 µM) in [2]; 1.9 µg/mL (≈ 2.08 µM) in [3]; 1.3 µg/mL (≈ 1.42 µM) in assay [4]; 0.87 µg/mL (≈ 0.952 µM) in assay [5]; 2.3 µg/mL (≈ 2.52 µM) in assay [6]. Also, the “Mean Neurite Lengths after 168 h, Neurite Length” value with SH-SY5Y cells is 261.4 ± 13.1 μm.
